Target: human P2X3 receptor (Homo sapiens (Human), UniProt P56373)
Assay: Evaluation of human P2X3 receptor inhibitory activity (Fluo-3 calcium fluorescence, FDSS 3000, ATP stimulation);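 also: stimulus was 50 nM ATP with fluorescence followed for 3 min, and the response per well was peak post-ATP fluorescence divided by the reading at measurement start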
Assay type: cell-based
Conditions: human P2X3 receptor, Test Example 1

human P2X3 receptor, sequence (P56373 whole entry): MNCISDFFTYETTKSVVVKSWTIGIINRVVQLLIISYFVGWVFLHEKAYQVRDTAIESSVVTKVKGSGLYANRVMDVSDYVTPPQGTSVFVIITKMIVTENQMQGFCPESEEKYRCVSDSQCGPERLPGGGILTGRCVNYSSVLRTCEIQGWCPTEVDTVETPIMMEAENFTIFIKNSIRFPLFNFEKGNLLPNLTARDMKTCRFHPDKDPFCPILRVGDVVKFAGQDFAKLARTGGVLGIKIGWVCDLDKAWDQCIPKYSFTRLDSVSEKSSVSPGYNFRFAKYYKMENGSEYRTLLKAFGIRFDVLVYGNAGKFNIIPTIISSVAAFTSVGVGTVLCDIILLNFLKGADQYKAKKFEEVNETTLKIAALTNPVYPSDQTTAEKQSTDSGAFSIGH

SMILES | IC50 [nM]
Cn1c(=O)[nH]/c(=N\c2ccc(Oc3cccc(C(=O)O)n3)cc2)n(C[C@H]2CC[C@H](C)CC2)c1=O [Compound I-2465] | 4
CCn1c(=O)[nH]/c(=N\c2ccc(Oc3cccc(C#N)n3)cc2)n(Cc2ccc(F)cc2)c1=O [Compound I-2466] | 16
CCn1c(=O)[nH]/c(=N\c2ccc(Oc3cncc(C(=O)OC)n3)cc2)n(Cc2ccc(C)cc2)c1=O [Compound I-2467] | 7
COC(=O)c1cncc(Oc2ccc(/N=c3\[nH]c(=O)n(C)c(=O)n3Cc3ccc(C)cc3)cc2)n1 [Compound I-2468] | 20
COC(=O)c1cncc(Oc2ccc(/N=c3\[nH]c(=O)n(C)c(=O)n3Cc3ccc(Cl)cc3)cc2)n1 [Compound I-2469] | 19
Cn1c(=O)[nH]/c(=N\c2ccc(Oc3cncc(C(N)=O)n3)cc2)n(Cc2ccc(Cl)cc2)c1=O [Compound I-2471] | 5
CCn1c(=O)[nH]/c(=N\c2ccc(Oc3cncc(C(N)=O)n3)cc2)n(Cc2ccc(C)cc2)c1=O [Compound I-2472] | 3
Cc1ccc(Cn2c(=O)n(C)c(=O)[nH]/c2=N\c2ccc(Oc3cncc(C(N)=O)n3)cc2)cc1 [Compound I-2473] | 8
CCn1c(=O)[nH]/c(=N\c2ccc(Oc3cncc(C(=O)O)n3)cc2)n(Cc2ccc(C)cc2)c1=O [Compound I-2474] | 7
Cc1ccc(Cn2c(=O)n(C)c(=O)[nH]/c2=N\c2ccc(Oc3cncc(C(=O)O)n3)cc2)cc1 [Compound I-2475] | 12
Cn1c(=O)[nH]/c(=N\c2ccc(Oc3cncc(C(=O)O)n3)cc2)n(Cc2ccc(Cl)cc2)c1=O [Compound I-2476] | 13
O=c1[nH]/c(=N\c2ccc(Oc3cnsn3)cc2)n(Cc2ccc(Cl)cc2)c(=O)n1CCO [Compound I-2477] | 15
O=c1[nH]/c(=N\c2ccc(Oc3cnsn3)cc2)n(Cc2ccc(Cl)cc2)c(=O)n1CC(CO)CO [Compound I-2478] | 5
O=c1[nH]/c(=N\c2ccc(Oc3cnsn3)cc2)n(Cc2ccc(Cl)cc2)c(=O)n1C[C@H](O)CO [Compound I-2479] | 8
CC[C@H](C)n1c(=O)[nH]/c(=N\c2ccc(Oc3ccnc(C(=O)O)c3)cc2)n(Cc2ccc(Cl)cc2)c1=O [Compound I-2480] | 6
CC[C@H](C)n1c(=O)[nH]/c(=N\c2ccc(Oc3cncc(C(=O)O)c3)cc2)n(Cc2ccc(Cl)cc2)c1=O [Compound I-2481] | 8
CC[C@@H](C)n1c(=O)[nH]/c(=N\c2ccc(Oc3ccnc(C(=O)O)c3)cc2)n(Cc2ccc(Cl)cc2)c1=O [Compound I-2482] | 11
CC[C@@H](C)n1c(=O)[nH]/c(=N\c2ccc(Oc3cncc(C(=O)O)c3)cc2)n(Cc2ccc(Cl)cc2)c1=O [Compound I-2483] | 8
O=C(O)c1cc(Oc2ccc(/N=c3\[nH]c(=O)n(C4CCC4)c(=O)n3Cc3ccc(Cl)cc3)cc2)ccn1 [Compound I-2484] | 8
O=C(O)c1cncc(Oc2ccc(/N=c3\[nH]c(=O)n(C4CCC4)c(=O)n3Cc3ccc(Cl)cc3)cc2)c1 [Compound I-2485] | 8
C[C@H](C(=O)O)n1c(=O)[nH]/c(=N\c2ccc(Oc3ccon3)cc2)n(Cc2ccc(Cl)cc2)c1=O [Compound I-2486] | 381
C[C@H](CO)n1c(=O)[nH]/c(=N\c2ccc(Oc3ccon3)cc2)n(Cc2ccc(Cl)cc2)c1=O [Compound I-2488] | 37
C[C@@H](CO)n1c(=O)[nH]/c(=N\c2ccc(Oc3ccon3)cc2)n(Cc2ccc(Cl)cc2)c1=O [Compound I-2489] | 50

SMILES | IC50 [nM]
O=c1[nH]/c(=N\c2ccc(Oc3ccon3)cc2)n(Cc2ccc(Cl)cc2)c(=O)n1CCOCCO [Compound I-2490] | 10
CCn1c(=O)[nH]/c(=N\c2ccc(Oc3cc(C(=O)O)n(C)n3)cc2)n(Cc2ccc(Cl)cc2)c1=O [Compound I-2491] | 74
CCn1c(=O)[nH]/c(=N\c2ccc(Oc3cccc(C#N)n3)c(F)c2)n(Cc2ccc(Cl)cc2)c1=O [Compound I-2492] | 4
Cn1c(=O)[nH]/c(=N\c2ccc(Oc3cccc(C#N)n3)c(F)c2)n(Cc2ccc(Cl)cc2)c1=O [Compound I-2493] | 5
CCn1c(=O)[nH]/c(=N\c2ccc(Oc3cccc(C#N)n3)cc2)n(C[C@H]2CC[C@H](C)CC2)c1=O [Compound I-2494] | 1
CCn1c(=O)[nH]/c(=N\c2ccc(Oc3cccc(C(N)=O)n3)cc2)n(Cc2ccc(F)cc2)c1=O [Compound I-2495] | 21
CCn1c(=O)[nH]/c(=N\c2ccc(Oc3cccc(C(=O)O)n3)cc2)n(Cc2ccc(F)cc2)c1=O [Compound I-2496] | 30
CCn1c(=O)[nH]/c(=N\c2ccc(Oc3cccc(C(N)=O)n3)cc2)n(C[C@H]2CC[C@H](C)CC2)c1=O [Compound I-2497] | 1
CCn1c(=O)[nH]/c(=N\c2ccc(Oc3cccc(C(=O)O)n3)c(F)c2)n(Cc2ccc(Cl)cc2)c1=O [Compound I-2498] | 3
CCn1c(=O)[nH]/c(=N\c2ccc(Oc3cccc(C(=O)O)n3)cc2)n(C[C@H]2CC[C@H](C)CC2)c1=O [Compound I-2499] | 5
C[C@H](C(N)=O)n1c(=O)[nH]/c(=N\c2ccc(Oc3ccon3)cc2)n(Cc2ccc(Cl)cc2)c1=O [Compound I-2500] | 67
C[C@@H](C(N)=O)n1c(=O)[nH]/c(=N\c2ccc(Oc3ccon3)cc2)n(Cc2ccc(Cl)cc2)c1=O [Compound I-2501] | 57
Cn1c(=O)[nH]/c(=N\c2ccc(Oc3cccc(C(=O)O)n3)c(F)c2)n(Cc2ccc(Cl)cc2)c1=O [Compound I-2502] | 7
O=c1[nH]c(=O)n(Cc2ccc(Cl)cc2)/c(=N/c2ccc(Oc3cccc(F)n3)cc2)[nH]1 [Compound I-2503] | 39
O=C(O)Cn1c(=O)[nH]/c(=N\c2ccc(Oc3ccon3)cc2)n(Cc2ccc(Cl)cc2)c1=O [Compound I-2504] | 370
O=c1[nH]/c(=N\c2ccc(Oc3nccs3)cc2)n(Cc2ccc(Cl)cc2)c(=O)n1CCO [Compound I-2505] | 17
O=c1[nH]/c(=N\c2ccc(Oc3nccs3)cc2)n(Cc2ccc(Cl)cc2)c(=O)n1C[C@@H](O)CO [Compound I-2506] | 14
O=c1[nH]/c(=N\c2ccc(Oc3nccs3)cc2)n(Cc2ccc(F)cc2)c(=O)n1CCCO [Compound I-2507] | 35
CC(CO)(CO)Cn1c(=O)[nH]/c(=N\c2ccc(Oc3nccs3)cc2)n(Cc2ccc(F)cc2)c1=O [Compound I-2508] | 13
Cc1ccc(Cn2c(=O)n(C[C@H](O)CO)c(=O)[nH]/c2=N\c2ccc(Oc3ccon3)cc2)cc1 [Compound I-2510] | 10
Cc1nnc(Oc2ccc(/N=c3\[nH]c(=O)n(C[C@H](O)CO)c(=O)n3Cc3ccc(Cl)cc3)cc2)s1 [Compound I-2511] | 235
NC(=O)Cn1c(=O)[nH]/c(=N\c2ccc(Oc3ccon3)cc2)n(Cc2ccc(Cl)cc2)c1=O [Compound I-2512] | 11
Cc1cnc(Oc2ccc(/N=c3\[nH]c(=O)n(C[C@H](O)CO)c(=O)n3Cc3ccc(Cl)cc3)cc2)s1 [Compound I-2513] | 6

SMILES | IC50 [nM]
O=c1[nH]/c(=N\c2ccc(Oc3ccsn3)cc2)n(Cc2ccc(Cl)cc2)c(=O)n1CC(O)CO (stereo not shown) [Compound I-2514] | 11
CCn1c(=O)[nH]/c(=N\c2ccc(Oc3nnn[nH]3)cc2)n(Cc2ccc(Cl)cc2)c1=O [Compound I-2515] | 346
O=c1[nH]/c(=N\c2ccc(Oc3cccc(F)n3)cc2)n(Cc2ccc(Cl)cc2)c(=O)n1CCO [Compound I-2516] | 9
Cc1nnc(Oc2ccc(/N=c3\[nH]c(=O)n(CC(CO)CO)c(=O)n3Cc3ccc(Cl)cc3)cc2)s1 [Compound I-2517] | 167
Cc1nsc(Oc2ccc(/N=c3\[nH]c(=O)n(C[C@H](O)CO)c(=O)n3Cc3ccc(Cl)cc3)cc2)n1 [Compound I-2518] | 4
O=c1[nH]/c(=N\c2ccc(Oc3ncns3)cc2)n(Cc2ccc(Cl)cc2)c(=O)n1C[C@H](O)CO [Compound I-2519] | 4
Cc1nsc(Oc2ccc(/N=c3\[nH]c(=O)n(CC(CO)CO)c(=O)n3Cc3ccc(Cl)cc3)cc2)n1 [Compound I-2520] | 2
O=c1[nH]/c(=N\c2ccc(Oc3ncns3)cc2)n(Cc2ccc(Cl)cc2)c(=O)n1CC(CO)CO [Compound I-2521] | 5
CC(C)(C)OC(=O)NCCn1c(=O)[nH]/c(=N\c2ccc(Oc3ccon3)cc2)n(Cc2ccc(Cl)cc2)c1=O [Compound I-2522] | 11
NCCn1c(=O)[nH]/c(=N\c2ccc(Oc3ccon3)cc2)n(Cc2ccc(Cl)cc2)c1=O [Compound I-2523] | 169
CC(=O)NCCn1c(=O)[nH]/c(=N\c2ccc(Oc3ccon3)cc2)n(Cc2ccc(Cl)cc2)c1=O [Compound I-2524] | 34
O=c1[nH]/c(=N\c2ccc(Oc3cccc(F)n3)cc2)n(Cc2ccc(Cl)cc2)c(=O)n1C[C@@H](O)CO [Compound I-2525] | 10
CC(CO)(CO)Cn1c(=O)[nH]/c(=N\c2ccc(Oc3cccc(F)n3)cc2)n(Cc2ccc(F)cc2)c1=O [Compound I-2526] | 8
CNC(=O)CCn1c(=O)[nH]/c(=N\c2ccc(Oc3ccon3)cc2)n(Cc2ccc(Cl)cc2)c1=O [Compound I-2527] | 26
O=c1[nH]/c(=N\c2ccc(Oc3ccon3)c(F)c2)n(Cc2ccc(Cl)cc2)c(=O)n1C(CO)CO [Compound I-2529] | 73
O=c1[nH]/c(=N\c2ccc(Oc3ccsn3)cc2)n(Cc2ccc(Cl)cc2)c(=O)n1C[C@H](O)CO [Compound I-2530] | 16
CC(CO)(CO)Cn1c(=O)[nH]/c(=N\c2ccc(Oc3ccsn3)cc2)n(Cc2ccc(Cl)cc2)c1=O [Compound I-2531] | 4
CCn1c(=O)[nH]/c(=N\c2ccc(Oc3ccnc(C(N)=O)n3)cc2)n(Cc2ccc(Cl)cc2)c1=O [Compound I-2532] | 5
CCn1c(=O)[nH]/c(=N\c2ccc(Oc3ccc(C(=O)NC)nn3)cc2)n(Cc2ccc(Cl)cc2)c1=O [Compound I-2533] | 4
CNC(=O)[C@@H](C)n1c(=O)[nH]/c(=N\c2ccc(Oc3ccon3)cc2)n(Cc2ccc(Cl)cc2)c1=O [Compound I-2534] | 105
CNC(=O)[C@H](C)n1c(=O)[nH]/c(=N\c2ccc(Oc3ccon3)cc2)n(Cc2ccc(Cl)cc2)c1=O [Compound I-2535] | 44

From patent publication US9718790B2, “Triazine derivative and pharmaceutical composition having an analgesic activity comprising the same” (SHIONOGI & CO., LTD., priority 2010, dated 2017)
